From article PMC4999056 (European Journal of Medicinal Chemistry, 2016)
Like-named read-outs stand apart in the source and are kept apart here.

Key:
DENV (serotype 2) = test: microbe, parasite or virus in culture; format: cell-based, Dengue virus serotype 2; settings: for EC50: read-out: Dengue EC50
YFV = test: microbe, parasite or virus in culture; format: cell-based, yellow fever virus; settings: for EC50: read-out: Yellow fever EC50
[1] = test system: Vero-B cells (ATCCCCL-81)
in vitro [2] = settings: chlorocebus aethiops
in vitro [3] = settings: chlorocebus aethiops, Yellow fever CC50

Compound | CC50 (Vero-B cells (ECACC)) [µM] | Dengue SI (DENV (serotype 2)) | EC50 (DENV (serotype 2)) [µM] | Yellow fever SI (YFV) | EC50 (YFV) [µM] | CC50 [1] [µM] | EC50 (DENV (serotype 2); Dengue virus, Vero B) [µM] | EC50 (YFV; Yellow fever virus, Vero B) [µM] | CC50 at 168 h (in vitro [2]) [µM] | CC50 at 168 h (in vitro [3]) [µM] | CC50 (in vitro [2]) [µM] | CC50 (in vitro [3]) [µM] | fold increase in DENV activity for the methyl congener (DENV (serotype 2)) [fold]
N^1-(4-fluorophenyl)-N^2-(2-(thiophen-3-yl)benzyl)phthalamide [7i] | 50 | 17 | 3 | 53 | 1.4 | 75 |  |  |  |  |  |  | 
O=C(NCc1ccccc1-c1ccsc1)c1nccnc1C(=O)Nc1ccc(F)cc1 [6i, N^2-(4-fluorophenyl)-N^3-(2-(thiophen-3-yl)benzyl)pyrazine-2,3-dicarboxamide] |  | 2 |  | 19 |  |  | 24 | 3.9 | 52 | 76 |  |  | 
Cc1cc(-c2ccccc2NC(=O)c2ccccc2C(=O)Nc2ccc(F)cc2)[nH]n1 [7m, N^1-(4-fluorophenyl)-N^2-(2-(3-methyl-1H-pyrazol-5-yl)phenyl)phthalamide] |  | 1 |  | >10 |  |  | > 120 | 12 |  |  | > 120 | > 120 | 
Cc1ccc(NC(=O)c2ccccc2C(=O)NCc2ccccc2-c2ccsc2)cc1 [7j, N^1-(2-(thiophen-3-yl)benzyl)-N^2-(p-tolyl)phthalamide] |  | 17 |  | 23 |  |  | 3 | 2.6 | 50 | 61 |  |  | 
Cc1ccc(NC(=O)c2nccnc2C(=O)NCc2ccc(-c3ccsc3)cc2)cc1 [6l, N^2-(4-(thiophen-3-yl)benzyl)-N^3-(p-tolyl)pyrazine-2,3-dicarboxamide] |  | >8 |  | >5 |  |  | 14 | 21.5 |  |  | > 117 | > 117 | 10
